Experimental findings from ChEMBL document CHEMBL1201862, “PubChem BioAssay data set” (2004) are described below.

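Step 1: Grow cells in 96-well plates. Step 2: Expose to compound for 48 hours at 5 concentrations. Step 3: Interpolate endpoints linearly; if unreached, use highest concentration. Here, GI50 denotes the concentration required for 50% inhibition of growth.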 Activity calls are given as the source filed them. Rule as the data show it: active = GI50 up to about 1.1 µM and inactive = higher. Where a SMILES comes first, the peptide text is derived from it. [ ]: non-standard residue; d: D form. 2Nal = N[CH](Cc1ccc2ccccc2c1)C(=O)O

Test systems include TK-10; U-251; Hs-578T; OVCAR-4; CCRF-CEM; OVCAR-8; NCI-H522; LOX IMVI; SK-MEL-28; SF-539; COLO 205; ACHN; A498; NCI/ADR-RES; NCI-H226; SNB-19; K562; MCF7; OVCAR-3.
Assay in all cases: NCI anticancer screen, dose series, 48 h

`COc1ccc(N2C(=O)C(=O)N(c3ccc(/N=N\c4ccccc4)cc3)C2=S)cc1`: the GI50 was 20.7 µM (inactive) in the assay with TK-10; 17.1 µM (inactive) in the assay with U-251; 27.4 µM (inactive) with Hs-578T; 18.2 µM (inactive) with OVCAR-4; 35.1 µM (inactive) with CCRF-CEM; 17.9 µM (inactive) in the assay on OVCAR-8. The GI50 in the assay on NCI-H522 was 5.37 µM (inactive); with LOX IMVI, 18.7 µM (inactive); in the assay on SK-MEL-28 it was 23.2 µM (inactive); in the assay on SF-539, 19.2 µM (inactive); in the assay with COLO 205, 17.1 µM (inactive); in the assay on ACHN it was 19 µM (inactive). In addition, the GI50 in the assay with A498 was 23.8 µM (inactive); with NCI/ADR-RES it was 18.9 µM (inactive); in the assay with NCI-H226, 21.7 µM (inactive); in the assay on SNB-19, 21.9 µM (inactive); with K562 it was 37.5 µM (inactive).
In the case of `COc1cc2oc(=O)ccc2cc1C1OC(=O)C2OC21C` (centres undefined), the GI50 in the assay on TK-10 is > 100 µM (inactive); with U-251 it was > 100 µM (inactive); with Hs-578T it was 54.6 µM (inactive); in the assay on OVCAR-4, > 100 µM (inactive); in the assay with CCRF-CEM, > 100 µM (inactive); with OVCAR-8, > 100 µM (inactive). In addition, the GI50 in the assay on MCF7, in the assay with LOX IMVI, in the assay with OVCAR-3, with SK-MEL-28, in the assay with SF-539 and in the assay with COLO 205 was > 100 µM (inactive) in each case. The GI50 in the assay with ACHN, in the assay on NCI/ADR-RES, in the assay on NCI-H226, in the assay on SNB-19 and with K562 was > 100 µM (inactive) in each case.
As to `CCOC(=O)C(Cc1ccccc1)NC(=O)c1ccc(/N=N/N(C)C)cc1` (centres undefined), the GI50 with TK-10, with U-251, in the assay with OVCAR-4, with CCRF-CEM, with OVCAR-8 and in the assay with NCI-H522 was > 100 µM (inactive) throughout. The GI50 with LOX IMVI, with OVCAR-3, in the assay with SK-MEL-28, in the assay on SF-539, in the assay on COLO 205 and with ACHN was > 100 µM (inactive) each time. Besides, the GI50 with A498, in the assay with NCI-H226, with SNB-19 and in the assay on K562 was > 100 µM (inactive) each time.
On to `Nc1nc2c(N)cc(C(F)(F)F)cc2nc1-c1ccccc1`, for which the GI50 was > 100 µM (inactive) in the assay with TK-10; > 100 µM (inactive) in the assay with U-251; > 100 µM (inactive) with OVCAR-4; > 100 µM (inactive) in the assay with CCRF-CEM; > 100 µM (inactive) in the assay on OVCAR-8; 85.3 µM (inactive) with NCI-H522. For the same compound, the GI50 in the assay on LOX IMVI, in the assay on OVCAR-3, in the assay with SK-MEL-28, in the assay with SF-539, in the assay on COLO 205 and in the assay on ACHN was > 100 µM (inactive) each time. For the same compound, the GI50 in the assay with A498, in the assay with NCI-H226, with SNB-19 and with K562 was > 100 µM (inactive) each time.
Turning to `CCOC(OC1=C(C#N)CCC1)C(C)[Se]c1ccccc1` (centres undefined), the GI50 in the assay on TK-10 was > 100 µM (inactive); with U-251, 6.41 µM (inactive); in the assay on OVCAR-4, 14.9 µM (inactive); with CCRF-CEM it was > 100 µM (inactive); with OVCAR-8, 18.7 µM (inactive); in the assay on NCI-H522, 13.5 µM (inactive). The GI50 in the assay on LOX IMVI is 10 µM (inactive); in the assay on OVCAR-3 it was 18.1 µM (inactive); in the assay on SK-MEL-28, 40.6 µM (inactive); in the assay on SF-539, 21.6 µM (inactive); with COLO 205 it was 27.5 µM (inactive); in the assay with ACHN, 32.1 µM (inactive). Further, the GI50 was > 100 µM (inactive) with A498, 19.7 µM (inactive) with NCI-H226, 48.1 µM (inactive) in the assay with SNB-19 and 55.6 µM (inactive) with K562.
As for `O=C1NC(=O)[C@@H](OCC2CCCCC2)[C@@H]2OCC3OC(C(O)C3O)C12` (some centres undefined), the GI50 in the assay with TK-10, in the assay with Hs-578T, with OVCAR-4, in the assay with CCRF-CEM, in the assay with OVCAR-8 and in the assay on MCF7 was > 100 µM (inactive) each time. Also, the GI50 in the assay on LOX IMVI, with OVCAR-3, in the assay on SK-MEL-28, in the assay with SF-539, in the assay with COLO 205 and in the assay with ACHN was > 100 µM (inactive) in each case. For the same compound, the GI50 in the assay with A498, in the assay on NCI/ADR-RES, in the assay on NCI-H226 and with SNB-19 was > 100 µM (inactive) throughout.
For `CC1CC(=O)C(C(O)CC2CC(=O)N(c3ccccc3)C(=O)C2)C(C)C1` (centres undefined), the GI50 in the assay with TK-10, in the assay with U-251, in the assay with OVCAR-4, in the assay with CCRF-CEM, with OVCAR-8 and with NCI-H522 was > 100 µM (inactive) each time. Also, the GI50 in the assay on LOX IMVI, in the assay with OVCAR-3, in the assay with SK-MEL-28, in the assay on SF-539, in the assay on COLO 205 and in the assay with ACHN was > 100 µM (inactive) throughout. The GI50 in the assay on A498, in the assay on NCI-H226, with SNB-19 and with K562 was > 100 µM (inactive) in each case.
On to `CNC(=O)OCc1c(COC(=O)NC)c(-c2ccc(Cl)c(Cl)c2)n2c1SCC2`, for which the GI50 in the assay on TK-10 was 2.86 µM (inactive); in the assay on U-251, 7.85 µM (inactive); with Hs-578T, 21 µM (inactive); in the assay on CCRF-CEM, 13.4 µM (inactive); in the assay on OVCAR-8, 3.85 µM (inactive); in the assay with MCF7, 13 µM (inactive). The GI50 in the assay on NCI-H522 was 8.85 µM (inactive); in the assay with LOX IMVI, 12.4 µM (inactive); in the assay with OVCAR-3 it was 16.7 µM (inactive); in the assay with SK-MEL-28, 10.8 µM (inactive); in the assay on SF-539, 15.5 µM (inactive); with COLO 205 it was 9.82 µM (inactive). Besides, the GI50 is 3.61 µM (inactive) in the assay with ACHN; 0.836 µM (active) with A498; 16 µM (inactive) in the assay on NCI/ADR-RES; 0.387 µM (active) in the assay with NCI-H226; 29.2 µM (inactive) with SNB-19; 11 µM (inactive) in the assay with K562.
Take `COC(=O)C(Cc1cc(OC)c(OC)c(OC)c1)c1ccc(OC)cc1` (centres undefined): the GI50 in the assay with TK-10 was > 100 µM (inactive); in the assay on U-251 it was > 100 µM (inactive); in the assay with OVCAR-4, > 100 µM (inactive); with CCRF-CEM, 88.5 µM (inactive); in the assay with OVCAR-8 it was > 100 µM (inactive); with NCI-H522, 90.4 µM (inactive). Moreover, the GI50 was 79.3 µM (inactive) in the assay with LOX IMVI; 95.7 µM (inactive) in the assay with OVCAR-3; > 100 µM (inactive) in the assay with SK-MEL-28; > 100 µM (inactive) in the assay with SF-539; > 100 µM (inactive) in the assay with COLO 205; > 100 µM (inactive) in the assay with ACHN. The GI50 is > 100 µM (inactive) in the assay with A498, > 100 µM (inactive) in the assay on NCI-H226, > 100 µM (inactive) with SNB-19 and 88.9 µM (inactive) in the assay on K562.
On to `CC(NC(=O)C(N)Cc1ccccc1)C(=O)NC(Cc1ccc(O)cc1)C(=O)NC(Cc1c[nH]c2ccccc12)C(=O)NC(CCCCN)C(=O)NC(C(=O)NC(C)C(=O)NC(Cc1ccc2ccccc2c1)C(N)=O)C(C)C` (centres undefined) (H-FAYWKVA[2Nal]-NH2; configuration not given here), for which the GI50 with U-251, in the assay with Hs-578T, in the assay on OVCAR-4, in the assay on CCRF-CEM, in the assay with OVCAR-8 and in the assay on MCF7 was > 12.5 µM (inactive) each time. Further, the GI50 in the assay on NCI-H522, in the assay on LOX IMVI, in the assay on OVCAR-3, in the assay with SK-MEL-28, in the assay with SF-539 and in the assay with COLO 205 was > 12.5 µM (inactive) in each case. Further, the GI50 with ACHN was > 12.5 µM (inactive); in the assay on A498, > 12.5 µM (inactive); with NCI/ADR-RES it was > 12.5 µM (inactive); with NCI-H226, > 12.5 µM (inactive); with SNB-19, 24.6 µM (inactive); in the assay with K562 it was > 12.5 µM (inactive).
As for `COc1cc(O)c2c(=O)cc(-c3ccc(O)cc3O)oc2c1CC=C(C)C` [ARTOCARPETIN A], the GI50 is 27.7 µM (inactive) in the assay on TK-10; 17.1 µM (inactive) with U-251; 28.4 µM (inactive) with Hs-578T; 13.1 µM (inactive) in the assay with OVCAR-4; 15.4 µM (inactive) in the assay on CCRF-CEM; 16.9 µM (inactive) in the assay on OVCAR-8. Also, the GI50 is 20.3 µM (inactive) in the assay with MCF7; 16 µM (inactive) in the assay on NCI-H522; 11.9 µM (inactive) with LOX IMVI; 29.1 µM (inactive) in the assay with SK-MEL-28; 18.1 µM (inactive) in the assay with SF-539; 9.25 µM (inactive) in the assay on COLO 205. For the same compound, the GI50 with ACHN is 16.3 µM (inactive); with A498, 22.1 µM (inactive); in the assay with NCI/ADR-RES it was 27 µM (inactive); with NCI-H226, 12.2 µM (inactive); in the assay with SNB-19, 18.3 µM (inactive); in the assay with K562, 17 µM (inactive).
